# Assay results published in the NIST ThermoML archive (doi:10.1016/j.fluid.2012.08.002).
# ± gives the expanded uncertainty stated by the source.
# Details: 101.33 kPa, Liquid; for speed of sound: Sing-around technique in a fixed-path interferometer; for mass density: Vibrating tube method
Structure (SMILES),speed of sound (288.15 K),mass density (288.15 K),speed of sound (293.15 K),mass density (293.15 K),speed of sound (298.15 K),mass density (298.15 K),speed of sound (303.15 K),mass density (303.15 K),speed of sound (308.15 K),mass density (308.15 K),speed of sound (313.15 K),mass density (313.15 K),speed of sound (318.15 K),mass density (318.15 K)
CCCCCCn1cc[n+](C)c1.F[P-](F)(F)(F)(F)F [1-hexyl-3-methylimidazolium hexafluorophosphate],1449.1 ± 1.2 m/s,1302.74 ± 0.49 kg/m3,1434.1 ± 1.2 m/s,1298.71 ± 0.48 kg/m3,1420.3 ± 1.2 m/s,1294.69 ± 0.48 kg/m3,1407.3 ± 1.2 m/s,1290.66 ± 0.48 kg/m3,1394.9 ± 1.2 m/s,1286.64 ± 0.47 kg/m3,1383 ± 1.2 m/s,1282.63 ± 0.47 kg/m3,1371.5 ± 1.2 m/s,1278.72 ± 0.47 kg/m3
CCCCCCn1cc[n+](C)c1.F[B-](F)(F)F [1-hexyl-3-methylimidazolium tetrafluoroborate],1548.8 ± 1.2 m/s,1155.32 ± 0.36 kg/m3,1535 ± 1.2 m/s,1151.79 ± 0.35 kg/m3,1521.9 ± 1.2 m/s,1148.26 ± 0.35 kg/m3,1509.2 ± 1.2 m/s,1144.74 ± 0.35 kg/m3,1497 ± 1.2 m/s,1141.23 ± 0.34 kg/m3,1485 ± 1.2 m/s,1137.83 ± 0.34 kg/m3,1473.3 ± 1.2 m/s,1134.43 ± 0.34 kg/m3
COCCO [2-methoxyethan-1-ol],1376.5 ± 0.85 m/s,969.374 ± 0.091 kg/m3,1359 ± 0.85 m/s,964.809 ± 0.092 kg/m3,1341.7 ± 0.84 m/s,960.222 ± 0.094 kg/m3,1324.5 ± 0.84 m/s,955.615 ± 0.095 kg/m3,1307.1 ± 0.83 m/s,950.971 ± 0.097 kg/m3,1290 ± 0.83 m/s,946.306 ± 0.098 kg/m3,1272.8 ± 0.82 m/s,941.609 ± 0.099 kg/m3
CCCCCCn1cc[n+](C)c1.[Br-] [3-hexyl-1-methyl-1H-imidazolium bromide],1639.8 ± 1.3 m/s,1231.03 ± 0.42 kg/m3,1610.6 ± 1.3 m/s,1227.49 ± 0.42 kg/m3,1587.5 ± 1.3 m/s,1223.82 ± 0.42 kg/m3,1568.1 ± 1.3 m/s,1220.47 ± 0.41 kg/m3,1551.2 ± 1.3 m/s,1216.79 ± 0.41 kg/m3,1533.5 ± 1.2 m/s,1213.28 ± 0.41 kg/m3,1517.8 ± 1.2 m/s,1209.94 ± 0.4 kg/m3
